Structures are written as SMILES.

What is called MIC is the lowest concentration found to suppress growth. Low readings indicate a more susceptible organism, high ones a less susceptible organism.

Holding throughout (type): cell-based
In one experiment the test system is E. coli NDM ? b. The experiment is described as follows: antimicrobial susceptibility testing, VITEK 2 AST Cards. The procedure:
(§1) Beta-lactamase clinical samples were collected from University Hospitals Leuven and tested for ESBL production using the disk diffusion method^61. The beta-lactamase reference isolates were purchased from IHMA International Health management associates. Bacterial strains were cultivated in Mueller Hinton Broth (MHB, Difco) at 37° C. Whenever required growth media were supplemented with appropriate antibiotic to the medium or plates (kanamycin 30 μg/mL, L-arabinose 0.5 mg/mL, and IPTG 1 mM/mL). Escherichia coli BL21 (Thermo Fisher Scientific, Belgium) was used for cloning and plasmid amplification. For selection of antibiotic resistance colonies, E. coli carrying plasmids was grown in LB agar plates supplemented with the relevant antibiotic. Bacterial CFU counting was done on blood agar plates (BD Biosciences, Belgium) or MHA agar plates. Species identification and antibiograms for all clinical isolates were performed using MALDI-Tof and VITEK® 2 automated system (BioMérieux, France).

The next experiment deals with E. coli TEM-206. The experiment is described as above. The procedure: as §1
The subject of a further experiment is E. coli SH ? (APHA). Described as above. The procedure: as §1
In the next experiment the test system is E. coli NDM ? a. The experiment is described as above. The procedure:
as §1

Experiment [1] has as its system E. coli clinical isolate, β-lactamase TEM-ESBL. The experiment is described as follows: MIC of ampicillin without/with 30 μg/mL TEM3.2, clinical isolates. Particulars: ampicillin alone. The procedure:
(§2) Moreover, the core sequence of peptide TEM3.0 also occurs in the structurally related SHV β-lactamase (FIG. 2E). Although the C-terminal extension residues H and N have been replaced with physicochemically similar R and Q, respectively (FIG. 2H). […] To quantify the synergy between these four peptides and penicillin G, we performed a so-called checkerboard assay, which allows to compare the activity of two test compounds co-incubated (here peptide and a beta-lactam antibiotic), to their individual activities in isolation. The result from the assay is quantified as the Fractional Inhibitory Concentration Index (FICI), and it is generally accepted that values below 0.5 indicate synergistic effects between the compounds. As a control, we generated a peptide using the same design, but based on a previously identified APR from the β-galactosidase enzyme (BGAL)^16 from E. coli (APR=SVIIWSL, peptide sequence=[…]) that has a MIC value>100 μg/mL on E. coli strain UZ_TEM104. We evaluated the synergy of the peptides with penicillin G in clinical E. coli isolates carrying the TEM (FIG. 2I) or SHV enzymes (FIG. 2J). […] As a further control, we also performed a checkerboard assay with an E. coli strain that was resistant to the aminoglycoside kanamycin and observed no synergy between this unrelated antibiotic and our peptides (FIG. 2L), in line with the notion that we are inhibiting a beta-lactamase but not the aminoglycoside degrading enzyme. […] The list of strains included some that harbored only TEM or SHV, but others contained additional Ambler Class A (CTX-M or OXA) or Class B (VIM and NDM) beta-lactamases. […] In contrast, the presence of the NDM-type […], that does have a high affinity for Ampicillin and that is completely distinct in sequence and structure from TEM and SHV, seemed to completely prevent the effect of the peptide on the beta-lactam sensitivity of the strains in which it occurred (see also further). As it appeared that TEM3.2 had activity in most isolates tested, we decided to focus further analysis on this peptide. Furthermore, we tested the performance of the TEM3.2 peptide in a checkerboard assay on strains carrying ESBL mutants of TEM, i.e. extended-spectrum mutations that cluster around the active site of the enzyme, and not in the aggregation prone region targeted by the peptide, and as expected from our mode of action, we observed synergy with ampicillin on these strains (FIG. 2M).
(§3) Determination of MIC values using the broth microdilution in the 96-well plate (BD Biosciences, Belgium) according to the EUCAST guideline, which was performed in 96-well polystyrene flat bottom microtiter plates (BD Biosciences). Briefly, a single colony was inoculated into 5 mL Difco™ Mueller Hinton Broth (BD Biosciences Ref 275730) and grown to the end-exponential growth phase in a shaking incubator at 37° C. Cultures were subsequently diluted to an MacFarland (0.5 optical density) then the culture was diluted to reach 10^6 CFU/mL in fresh MHB medium. 50 μl of different concentration of peptides ranging from 128 to 2 μg/mL were serially diluted to the sterile 96-well plate in MHB. 50 μL of the diluted bacteria in MHB were pipetted into 96-well plates to reach the final volume of 100 μL. The bacteria grown with the maximum concentration of carrier and medium were considered as positive and negative controls, respectively. The plates were statically incubated overnight at 37° C. to allow bacterial growth. OD was measured at 590 nm a multipurpose ultraviolet-visible plate reader, and the absorbance of the growth bacteria was measured using absorbance reader. Bacterial growth was also visually inspected and agreed well with the OD reading.

Experiment [2] concerns E. coli clinical isolate, β-lactamase TEM-ESBL; CTX-M-24; OXA-48. The experiment is described as above. Particulars: isolate 2017 Turkey, IAI, Abscess; ampicillin alone. The procedure:
as §2, §3

In experiment [3] the test system is E. coli clinical isolate, β-lactamase TEM-ESBL; CTX-M-27. The experiment is described as above. Conditions: isolate 2017 Romania, UTI, Urine; ampicillin alone. The procedure: as §2, §3
Experiment [4] has as its system E. coli clinical isolate, β-lactamase TEM-1. The description is as above. Particulars: isolates year NA, country NA, ampicillin alone. The procedure:
as §2, §3

The subject of experiment [5] is E. coli clinical isolate, β-lactamase TEM-ESBL; CTX-M-15; NDM-19. The description is as above. Particulars: isolate 2017 Qatar, IAI, Abscess; ampicillin alone. The procedure: as §2, §3
Experiment [6] concerns E. coli clinical isolate, β-lactamase TEM-ESBL; CTX-M-15; NDM-5. The experiment is described as above. Particulars: isolate 2017 Qatar, UTI, Urine; ampicillin alone. The procedure:
as §2, §3

For experiment [7], the system named is E. coli clinical isolate, β-lactamase SHV-2; CTX-M-55; VIM-1. The experiment is described as above. Particulars: isolate 2017 Turkey, UTI, Urine; ampicillin alone. The procedure: as §2, §3
Experiment [8] deals with E. coli clinical isolate, β-lactamase SHV-12; TEM-ESBL. Described as above. Conditions: isolate 2017 Germany, RTI, Bronchi; ampicillin alone. The procedure:
as §2, §3

Experiment [9] concerns E. coli clinical isolate, β-lactamase TEM-ESBL; CTX-M-TYPE. The description is as above. Conditions: isolate 2017 France, IAI, Peritoneal Fluid; ampicillin alone. The procedure: as §2, §3
The subject of the next experiment is E. coli TEM-148. The procedure: as §1
Another experiment relates to E. coli TEM-1 ?
The procedure: as §1

A further experiment relates to E. coli TEM-104. The procedure: as §1

As for `CC1(C)S[C@@H]2[C@H](NC(=O)[C@H](N)c3ccccc3)C(=O)N2[C@H]1C(=O)O` [ampicillin, Ampicillin], the Interpretation result with E. coli NDM ? b, with E. coli TEM-206, in the experiment with E. coli SH ? (APHA), in the experiment with E. coli NDM ? a, in the experiment with E. coli TEM-148 and with E. coli TEM-1 ? was “R” throughout. The Interpretation result with E. coli TEM-104 was “R”. Further, the minimum inhibitory concentration (MIC) with E. coli TEM-206, in the experiment with E. coli TEM-148, in the experiment on E. coli TEM-1 ? and in the experiment on E. coli TEM-104 was at least 32 µg/mL each time. Moreover, the MIC ampicillin is over 64 µg/mL in experiment [1] (isolate 2016 Germany, UTI, Urine); over 64 µg/mL in [1] (isolate 2016 Lithuania, UTI, Urine); over 64 µg/mL in experiment [1] (isolate 2017 Israel, UTI, Urine); over 64 µg/mL in experiment [1] (isolate 2017 Portugal, RTI, Bronchi); over 64 µg/mL in experiment [1] (isolates 2016 South Africa, IAI, Peritoneal Fluid); over 64 µg/mL in [2]. The MIC ampicillin in experiment [3], in experiment [4], in experiment [5], in experiment [6], in [7] and in experiment [8] was over 64 µg/mL each time. The MIC ampicillin in experiment [9] was over 64 µg/mL.

Values taken from US20240165196A1, “Beta-Lactamase Inhibitors” (VIB VZW, priority 2021, published 2024).
